Reference: the RepoRT retention time repository (doi:10.1021/acs.analchem.1c00972)

What was measured:
[1] = RP, Waters ACQUITY UPLC BEH C18, 100 × 1 mm, 1.7 µm, 50 °C, 0.3 mL/min, estimated dead time 0.17 min; A: water + 10 mM ammonium bicarbonate; B: 10% water + 90% methanol + 10 mM ammonium bicarbonate; gradient (min/%B) 0/0 15/100 21/100 22/0 30/0; details: stereoisomer not certain
[2] = RP, Waters ACQUITY UPLC BEH C18, 100 × 1 mm, 1.7 µm, 50 °C, 0.3 mL/min, estimated dead time 0.17 min; A: water + 0.1% formic acid + 20 mM ammonium formate; B: methanol + 0.1% formic acid + 20 mM ammonium formate; gradient (min/%B) 0/0 15/100 21/100 22/0 30/0; details: stereoisomer not certain

SMILES | LC retention time [1] [min] | LC retention time [2] [min]
Cc1cc(C)c(C2=C(OC(=O)CC(C)(C)C)C3(CCCC3)OC2=O)c(C)c1 [Spiromesifen] | 17.7 | 17.3
CN(C1CCCCC1)C1CCCCC1 [N-Methyl-dicyclohexylamine] | 13.1 | 9.22
Cc1ccc(-c2c(Cl)nc(C#N)n2S(=O)(=O)N(C)C)cc1 [Cyazofamid] | 15.3 | 15
COc1ccc(NC(=O)N(C)C)cc1Cl [Metoxuron] | 10.7 | 10.6
CCCCCCCCn1sccc1=O [2-Octyl-4-isothiazolin-3-one] | 15.3 | 15
CCCCCCCCCCS(=O)(=O)O [1-Decanesulfonic acid] | 14.7 | 15.1
CC(C)N(C(=O)SCC(Cl)=C(Cl)Cl)C(C)C [Triallate] | 17.7 | 17.3
CCOC(=O)Nc1cccc(OC(=O)Nc2ccccc2)c1 [Desmedipham] | 13.6 | 13.5
Oc1c(Cl)cc(-c2ccc(Cl)cc2)cc1Cl [4-Hydroxy-3,4',5-trichlorobiphenyl] | 15.2 | 16.9
CN(C)C(=O)NC1CCCCC1 [3-Cyclohexyl-1,1-dimethylurea] | 11.1 | 10.9
C=C1CC2C(CCC3(C)C(=O)CCC23)C2(C)C=CC(=O)C=C12 (stereo unspecified) [Exemestane] | 14.3 | 14
CCCCOC(=O)COC(=O)c1ccccc1C(=O)OCCCC [2-Butoxy-oxoethylbutylphthalate] | 16.6 | 16.2
NC(=O)N1c2ccccc2CC(O)c2ccccc21 (stereo unspecified) [10,11-Dihydro-10-hydroxycarbamazepine] | 10.9 | 10.7
CC(=O)N(C)N(C(=O)C(=O)N(C)C)c1ccccc1 [AMDOPH] | 9.52 | 9.42
CNC(=O)Oc1cc(C)c(N(C)C)c(C)c1 [Mexacarbate] | 14.8 | 8.62
CC=C1CC(C)C(C)(O)C(=O)OCC2=CCN(C)CCC(OC1=O)C2=O (stereo unspecified) [Senkirkine] | 10.2 | 9.47
COc1cc(OC)nc(N)n1 [2-Amino-4,6-dimethoxypyrimidine] | 8.74 | 7.19
COc1ccc2c(c1O)-c1c(OC)c(OC)cc3c1C(C2)N(C)CC3 (single isomer, unassigned; (+)) [(+)-Isocorydin] | 13.6 | 8.65
CC12CCC3C(CCC4(O)CC(O)CCC34C=O)C1(O)CCC2C1=CC(=O)OC1 (stereo unspecified) [Strophanthidin] | 11.3 | 11

SMILES | LC retention time [1] [min] | LC retention time [2] [min]
CNC(=O)ON=CC(C)(C)SC [Aldicarb] | 16.4 | 16.1
CN1CCN=C(c2ccccc2)c2cc(Cl)ccc21 [Medazepam] | 16.4 | 11.4
CCCOc1nn(C(=O)NS(=O)(=O)c2ccccc2C(=O)OC)c(=O)n1C [Propoxycarbazone] | 9.89 | 11.8
O=P(O)(Oc1ccccc1)Oc1ccccc1 [Diphenylphosphate] | 10.9 | 11
COc1ccc2c(c1)[nH]c1c(C)nccc12 [Harmine] | 13.5 | 9.88
COC(=O)c1ccccc1S(=O)(=O)NC(=O)N(C)c1nc(C)nc(OC)n1 [Tribenuron-methyl] | 9.4 | 12.8
CC1CCC2(NC1)OC1CC3C4CC=C5CC(O)CCC5(C)C4CCC3(C)C1C2C (stereo unspecified) [Solasodin] | 18 | 14.3
S=c1[nH]c2ccccc2s1 [2-Mercaptobenzothiazole] | 8.11 | 11
COP(=S)(S)OC [Dimethyldithiophosphate] | 2.81 | 2.01
CC=C(C)C(=O)OC1CCN2CC=C(COC(=O)C(O)(C(C)OC)C(C)(C)O)C12 (stereo unspecified) [Lasiocarpine] | 13.9 | 10.4
CC(=O)OC1CCN2CC=C(COC(=O)C(O)(C(C)C)C(C)O)C12 (stereo unspecified) [7-Acetyllycopsamine] | 11.8 | 8.13
CNC(=O)N(C)c1nc2ccccc2s1 [Methabenzthiazuron] | 13 | 12.7
CCC(=C(c1ccc(O)cc1)c1ccc(OCCN(C)C)cc1)c1ccccc1 [4-Hydroxytamoxifen] | 17 | 14.3
CN(C)S(=O)(=O)c1ccc(N)cc1 [4-Amino-N,N-dimethylbenzenesulfonamide] | 8.01 | 7.95
CC12CCC3C(CCC4C(O)C(=O)C=CC43C)C1CCC2=O (stereo unspecified) [4- Hydroxyandrostenedione] | 11.9 | 11.7
CCOP(=O)(OCC)OC(=CCl)c1ccc(Cl)cc1Cl [Chlorfenvinphos] | 16.1 | 15.8
Nc1ccc(Cc2ccc(N)c(Cl)c2)cc1Cl [2,2'-dichloro-4,4'-methylenedianiline] | 14.3 | 13.9
O=C1Nc2ccc(Cl)cc2C(c2ccccc2Cl)=NC1O (stereo unspecified) [Lorazepam] | 13.5 | 13.2

Continued, values first:

LC retention time [1] [min] | LC retention time [2] [min] | SMILES
16.7 | 13.9 | c1ccc(-c2ccc(C(c3ccccc3)n3ccnc3)cc2)cc1 (stereo unspecified) [Bifonazol]
10.2 | 7.51 | CC(C)NCC(O)COc1cccc2[nH]ccc12 (stereo unspecified) [Pindolol]
15.2 | 8.08 | CCCN(CCC)CCc1cccc2c1CC(=O)N2 [Ropinirole]
15.2 | 13.8 | CCCCCCCCCC[N+](C)(C)[O-] [N,N-Dimethyldecylamine-N-oxide]
3.64 | 3.66 | CC(O)C(=O)Nc1c(I)c(C(=O)NC(CO)CO)c(I)c(C(=O)NC(CO)CO)c1I (stereo unspecified) [Iopamidol]
15.6 | 15.3 | CC(=O)OC1(C(C)=O)CCC2C3C=C(C)C4=CC(=O)CCC4(C)C3CCC21C (stereo unspecified) [Megestrol-17-acetate]
9.63 | 9.49 | CN(C)C(=S)SC(=S)N(C)C [Tetramethylthiuram monosulfide]
12.1 | 12 | Cc1ccc(NS(=O)(=O)N(C)C)cc1 [DMST]
12.1 | 11.9 | CCOC(=O)CC(O)(CC(=O)OCC)C(=O)OCC [Triethylcitrate]
10 | 9.9 | CC(=O)NCC1CN(c2ccc(N3CCOCC3)c(F)c2)C(=O)O1 (stereo unspecified) [Linezolid]
9.54 | 9.42 | CC(=O)OCC(COC(C)=O)OC(C)=O [Triacetin]
16.6 | 16.2 | CC1C(C)(C)C2=C(C(=O)CCC2)C1(C)C (stereo unspecified) [Cashmeran]
15.2 | 11.4 | CCCCNc1ccc(C(=O)OCCN(C)C)cc1 [Tetracain]
6.78 | 8.73 | O=c1ccc2ccc(O)cc2o1 [Umbelliferone]
16.3 | 15.9 | CC(C)c1nc(CN(C)C(=O)NC(C(=O)NC(Cc2ccccc2)CC(O)C(Cc2ccccc2)NC(=O)OCc2cncs2)C(C)C)cs1 (stereo unspecified) [Ritonavir]
8.56 | 6.38 | CC(C)NCC(O)COc1ccc(CC(N)=O)cc1 (stereo unspecified) [Atenolol]

LC retention time [1] [min] | LC retention time [2] [min] | SMILES
11.9 | 11.7 | CC1=CC(=O)CC(C)(C)C1 [Isophorone]
10.1 | 6.31 | N#CC1CCCN1C(=O)CNC12CC3CC(CC(O)(C3)C1)C2 (stereo unspecified) [Vildagliptin]
15.5 | 10.1 | COC(=O)C1=COC(C)C2CN3CCc4c([nH]c5ccccc45)C3CC12 (stereo unspecified) [Ajmalicine]
14.5 | 9.31 | NC(=O)C1(N2CCCCC2)CCN(CCCC(=O)c2ccc(F)cc2)CC1 [Pipamperone]
12 | 11.7 | CCCCOCCOCCOCCOCCO [Tetraethyleneglycol monobutyl ether]
12.6 | 12.3 | Cc1c(C(C)C)c(=O)n(-c2ccccc2)n1C [Propyphenazone]
18 | 15.7 | Clc1ccc(COC(Cn2ccnc2)c2ccc(Cl)cc2Cl)c(Cl)c1 (stereo unspecified) [Miconazole]
9.08 | 9.01 | COCCOCCOCCOCCOC [Tetraglyme]
13.7 | 11.9 | CC12CC3CC(C)(C1)CC(N)(C3)C2 [Memantine]
14.1 | 9.26 | COC(=O)C1C(O)CCC2CN3CCc4c([nH]c5ccccc45)C3CC21 (stereo unspecified) [Yohimbine]
14.6 | 8.84 | c1ccc2nc3ccccc3cc2c1 [Acridin]
14 | 13.7 | CCC(C)OC(=O)N1CCCCC1CCO (stereo unspecified) [Icaridin]
17.7 | 15.2 | CCCCCCCCCCCCNC [N-Methyldodecylamine]
15.8 | 15.5 | O=C1Nc2ccc(Cl)cc2C(C#CC2CC2)(C(F)(F)F)O1 (stereo unspecified) [Efavirenz]
5.86 | 5.9 | Cn1cnc2c1c(=O)[nH]c(=O)n2C [Theobromine]
